For experiment [1], the target named is VEGFR-1 (Homo sapiens, UniProt P17948). The note with it: cited from earlier work.
Experiment [2] has as its system kinases. To be noted: other kinases inhibited; cited from earlier work.
Experiment [3] deals with TIE-2 (Homo sapiens, UniProt Q02763). To be noted: read-out: IC 50 TIE-2; cited from earlier work.
Experiment [4] concerns breast tumor fragments. Put plainly: Expansion of T cells in vitro from breast tumor fragments treated with kinase inhibitors (Example 2). Type of experiment: cell-based, human. To be noted: first 20 days of culture, high doses IL-2, 12 h inhibitor treatment. The source says:
The fragments were washed, placed in culture as previously described and 20 days later the number of T cells obtained were counted. Antibodies and multimers of MHC class I: antibodies specific for CD4, CD8, CD3 and CD28 were from Beckton Dikinson. Antibodies specific for PD-1 were from Affimetrix eBioscience (clone J105, PD-1 PerCP-eF710), anti-LAG-3 antibodies were from Enzo Life Science (clone 17B4, LAG-3-FITC), anti-CD137 antibodies were from Biolegend (clone 4B4-1, CD137-BV605). Fluorescently labelled Her2/neu MHC-classI multimers were from TCMetrix (Epalinges, Swizerland).

pIC50: −log10 of the molar value.

Chain of TIE-2 (Q02763 23-1124, species assumed): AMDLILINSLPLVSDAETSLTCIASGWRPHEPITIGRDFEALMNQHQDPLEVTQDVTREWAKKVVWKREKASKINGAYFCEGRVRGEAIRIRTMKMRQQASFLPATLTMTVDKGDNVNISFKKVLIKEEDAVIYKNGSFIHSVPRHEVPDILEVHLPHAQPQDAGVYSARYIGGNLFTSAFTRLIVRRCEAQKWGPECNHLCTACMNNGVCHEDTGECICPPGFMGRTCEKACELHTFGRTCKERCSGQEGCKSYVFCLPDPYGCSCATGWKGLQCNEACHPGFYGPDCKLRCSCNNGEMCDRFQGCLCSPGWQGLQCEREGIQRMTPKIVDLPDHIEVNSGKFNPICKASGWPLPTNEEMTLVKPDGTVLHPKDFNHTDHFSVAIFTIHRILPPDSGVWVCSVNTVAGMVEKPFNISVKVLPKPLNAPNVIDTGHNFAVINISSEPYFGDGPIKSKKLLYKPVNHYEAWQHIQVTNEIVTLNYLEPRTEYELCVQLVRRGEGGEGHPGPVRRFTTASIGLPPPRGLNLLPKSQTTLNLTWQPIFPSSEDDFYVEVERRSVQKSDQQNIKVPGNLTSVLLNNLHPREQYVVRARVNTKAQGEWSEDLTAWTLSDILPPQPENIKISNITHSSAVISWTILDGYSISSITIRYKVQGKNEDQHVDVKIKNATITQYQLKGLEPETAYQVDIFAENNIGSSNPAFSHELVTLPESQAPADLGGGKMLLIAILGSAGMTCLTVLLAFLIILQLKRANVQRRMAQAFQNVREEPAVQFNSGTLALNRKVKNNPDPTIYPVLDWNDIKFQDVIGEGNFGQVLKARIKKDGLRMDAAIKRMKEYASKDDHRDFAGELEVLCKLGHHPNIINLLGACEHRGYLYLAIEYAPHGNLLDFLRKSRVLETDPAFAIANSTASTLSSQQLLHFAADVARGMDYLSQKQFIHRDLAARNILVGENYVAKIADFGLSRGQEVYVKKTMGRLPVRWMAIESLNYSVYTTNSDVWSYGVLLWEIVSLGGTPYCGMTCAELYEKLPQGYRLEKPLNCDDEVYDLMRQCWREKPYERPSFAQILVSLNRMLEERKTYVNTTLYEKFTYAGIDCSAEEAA
Chain of VEGFR-1 (P17948 27-1338, species assumed): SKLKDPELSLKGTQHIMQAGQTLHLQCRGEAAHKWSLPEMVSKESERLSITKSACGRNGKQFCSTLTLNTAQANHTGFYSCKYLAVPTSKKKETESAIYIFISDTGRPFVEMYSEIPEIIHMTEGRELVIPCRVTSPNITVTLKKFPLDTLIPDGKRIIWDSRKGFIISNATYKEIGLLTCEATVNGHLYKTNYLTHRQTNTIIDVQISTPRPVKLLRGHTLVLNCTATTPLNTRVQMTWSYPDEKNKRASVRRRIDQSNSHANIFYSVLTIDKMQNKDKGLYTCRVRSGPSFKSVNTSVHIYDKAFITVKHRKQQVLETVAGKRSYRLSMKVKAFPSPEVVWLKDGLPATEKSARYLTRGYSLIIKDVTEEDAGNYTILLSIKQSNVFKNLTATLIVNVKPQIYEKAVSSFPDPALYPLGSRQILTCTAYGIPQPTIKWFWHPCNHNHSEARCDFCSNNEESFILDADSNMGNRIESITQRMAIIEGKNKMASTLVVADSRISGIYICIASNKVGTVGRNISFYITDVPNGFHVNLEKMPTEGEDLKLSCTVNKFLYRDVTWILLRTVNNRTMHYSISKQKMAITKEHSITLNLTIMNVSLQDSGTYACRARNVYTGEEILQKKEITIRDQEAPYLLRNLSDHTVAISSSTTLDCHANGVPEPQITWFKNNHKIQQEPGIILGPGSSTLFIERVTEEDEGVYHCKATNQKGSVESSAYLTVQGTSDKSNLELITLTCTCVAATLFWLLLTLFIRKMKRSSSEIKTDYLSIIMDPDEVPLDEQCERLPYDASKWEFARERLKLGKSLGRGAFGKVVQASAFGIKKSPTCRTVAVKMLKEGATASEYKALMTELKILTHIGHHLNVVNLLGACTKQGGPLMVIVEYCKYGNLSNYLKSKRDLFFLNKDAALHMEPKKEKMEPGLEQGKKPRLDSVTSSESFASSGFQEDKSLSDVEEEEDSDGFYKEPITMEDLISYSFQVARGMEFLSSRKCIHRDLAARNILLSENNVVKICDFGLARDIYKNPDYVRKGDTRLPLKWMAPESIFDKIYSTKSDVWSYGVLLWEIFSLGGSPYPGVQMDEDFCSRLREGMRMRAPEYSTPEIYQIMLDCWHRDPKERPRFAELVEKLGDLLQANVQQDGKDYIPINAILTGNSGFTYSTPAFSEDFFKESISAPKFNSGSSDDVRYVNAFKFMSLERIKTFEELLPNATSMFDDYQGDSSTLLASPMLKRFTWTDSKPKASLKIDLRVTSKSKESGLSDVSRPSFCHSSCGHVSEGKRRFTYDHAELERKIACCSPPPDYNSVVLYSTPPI

For the compound `CNC(=O)c1cc(Oc2ccc(NC(=O)Nc3cc(C(C)(C)C)nn3-c3ccc4ncccc4c3)c(F)c2)ccn1` [Rebastinib (DCC-2036), Rebastinib], in experiment [1], the pIC50 was 7.92.
On to `Clc1ccc(Nc2nnc(Cc3ccncc3)c3ccccc23)cc1` [PTK787, Vatalanib], for which the Additional inhibition reported entry in experiment [2] is reported as “c-Kit, PDGFR”.
In the case of `Cc1ccc(OC(=O)N(CC(=O)N[C@@H](C)C2CCCCC2)Cc2ccc(-c3cncc(C(=O)O)c3)cc2)cc1` [Compound 7, 5-[4-[[[2-[[(1S)-1-Cyclohexylethyl]amino]-2-oxoethyl][(4methylphenoxy)carbonyl]amino]methyl]phenyl]-3-pyridinecarboxylic acid], the pIC50 in experiment [3] is 6.52.
For `COc1ccc2cc(-c3[nH]c(-c4ccc([S+](C)[O-])cc4)nc3-c3ccncc3)ccc2c1` (centres unmarked) [SB633825, 4-(5-(6-methoxynaphthalen-2-yl)-2-(4-(methylsulfinyl)phenyl)-1H-imidazol-4-yl)pyridine], in experiment [2], the Additional inhibition reported entry is reported as “p38, PDGFR1”. For the same compound, the “Number of T cells expanded per 1 mm3 of breast tumor tissue” value in experiment [4] was “more than one million”.
Turning to `O=C(Nc1cc(Oc2cc(F)c(NC(=O)C3(C(=O)Nc4ccc(F)cc4)CC3)cc2F)ccn1)C1CC1` [Altiratinib (DCC-2701), Altiratinib], the Additional inhibition reported result in experiment [2] is given as “Met”. Moreover, the pIC50 in experiment [3] was 8.70.
For the compound `COc1cc2nccc(Oc3ccc(NC(=O)Nc4cc(C)on4)c(Cl)c3)c2cc1OC` [Tivozanib], the Additional inhibition reported result in experiment [2] is on record as “PDGFR, c-Kit”.

The values are drawn from patent publication US10858626B2, “Adoptive immunotherapy for treating cancer” (UNIVERSITÉ DE LAUSANNE, priority 2014, dated 2020).
